Source: a melting point compilation (Tetko et al.; mined from patent text by program, amines drawn as free bases though some values may be those of a salt)
Residues, ends and D or L forms follow the SMILES beside them. *: point of attachment. Cbz = O=C(OCc1ccccc1)*

melting point [°C]	Structure (SMILES)
101	COc1ccc(-c2sc(-c3ccc(OC)s3)c3c2OCCO3)s1
147 to 151	CCCCCCCCCCCCCCCCCC(=O)Nc1ccn(C2OC(CO)C(O)C2O)c(=O)n1 (centres undefined)
119 to 120	COCCOC(=O)Nc1cccc(C)c1COc1cccn2c(C=O)c(C)nc12
> 250	CCOC(=O)CC[C@H](NC(=O)c1ccc(CCc2cnc3nc(NC(=O)C(C)(C)C)nc(O)c3c2)cc1)C(=O)OCC
190 to 191	Cc1ccc(-c2c(CNC(=O)OC(C)(C)C)c(CC(C)C)nc3ccc(-c4nc(C(=O)OC(C)C)cs4)cc23)cc1
263 to 265	NC(=O)c1cc(=O)c2c(o1)c1ccccc1n2-c1ccccc1
140 to 142	CCCCc1nc(NC(=N)N)sc1-c1cccc([N+](=O)[O-])c1
188 to 192	CCOCc1nc2c(N)nc3c(c2n1CCCCS(=O)(=O)NC)CCCC3
167 to 169	COc1ccc(-c2cc(C(F)F)nn2-c2ccc(S(N)(=O)=O)c(F)c2)cc1F
218 to 219	Cn1cc(-c2cccc(N3Cc4cc(C(C)(C)C)ccc4C3=O)c2CO)nc(Nc2cnn(C3CC3)c2)c1=O
244 to 245	CC1Cc2c(-n3nc(C#N)c(=O)[nH]c3=O)ccc(Cl)c2O1 (centres undefined)
116 to 117	c1ccc(-n2c(Cn3ccnc3)nc3ccccc32)cc1
145 to 146	Cc1scc2c1N(C(=O)NCCN1CCC(CCCC3CCCN3C)CC1)c1ccccc1NC2=O (centres undefined)
100 to 104	Cc1cccc(O[C@@H]2CN(Cc3ccccc3)C[C@H]2O)c1C (relative stereo)
280 to 281	Oc1cc(-c2ccccc2)nc2nn(-c3ccccc3)cc12
156 to 160	N#CC(=Cc1ccc(Cl)cc1Cl)n1cncn1
150 to 152	CCCNC(=O)C(C)=Cc1ccc2ccn(Cc3ccc(C(=O)O)cc3OC)c2c1
148 to 149	CCN(CC)c1cc(-c2ccccc2)nc2nn(-c3ccccc3)cc12
65 to 68	CCCCCOC(=O)c1cc(NC(=O)C2=C(C)OCCS2)ccc1Cl
80	CCOC(=O)C(=C1CCCN1C)c1ccc(F)cc1
148 to 150	CN(C)c1ccc(C(=O)CCCN2CCC(C(O)(c3ccccc3)c3ccccc3)CC2)cc1
290	NC1=CC2=C(CC1)CCc1c2[nH]c(=O)c(=O)n1Cc1ccccc1
54 to 55	CCCCCC(=O)NCc1ccco1
97 to 98	COc1c(C(=O)c2ccc([N+](=O)[O-])cc2Cl)c(C)nn1C
102	CC(C)c1cccc(C(C)C)c1NC(=O)CC(=O)N(Cc1ccccc1)C(C)C

melting point [°C]	Structure (SMILES)
89 to 93	Cc1[nH]c2cc(OCc3ccccc3)ccc2c1C(=O)C1CSC(c2cccnc2)N1 (centres undefined)
58 to 59	N#CCC(=O)N1CC=CCC1
169 to 170	COc1cc2c(cc1C(F)(F)F)N(C(=O)Nc1ccc(CN(C)C)cc1)CC2
70 to 72	CCCCCCCC[C@H](O)C(=O)O
81 to 83	CCOC(=O)C=Cc1cc(Br)cc(Cc2cccnc2)c1
108 to 110	O=C(O)CCCc1ccc([N+](=O)[O-])cn1
159 to 160	CN(C)C(=O)c1ccc([N+](=O)[O-])cc1S(N)(=O)=O
129 to 131	CC(C)(Oc1ccc(COCc2ccc3cn(-c4ccc(C(F)(F)F)cc4)nc3c2)cc1)C(=O)O
> 300	COc1cc2nc3n(c(=O)c2cc1OC)CS(=O)(=O)N3
245 to 246	Cc1cccc(Nc2ncnc3ccc(-n4cnc5ccccc54)cc23)c1
129	CC(C)C(=O)O[C@@H]1C[C@H](C(=O)Nc2ccc(N3CCOCC3=O)cc2)N(C(=O)Nc2ccc(Cl)cc2)C1
231 to 233	Cc1cc(C(=O)c2ccccc2)c(-n2c(C)nnc2CNC(=O)c2cc3ccccc3[nH]2)s1
112 to 115	CSc1nc(=O)n(C(C)(C)C)c(=O)[nH]1
184 to 186	CCOC(=O)c1[nH]cnc1C(F)(F)F
152 to 155	COc1ccc2c(c1O)NC(O)C1CCCN1C2=O (centres undefined)
> 250	NCC1Cc2cc(-c3ccccc3Cl)cc(F)c2O1 (centres undefined)
139 to 141	CO[C@]1(c2ncc(S(=O)(=O)c3ccc(/C(C)=N/O)cc3)s2)CCO[C@@H]1C (racemic)
131	CC(COC(=O)NC(=O)C(c1ccccc1)c1ccccc1)c1ccccc1 (racemic)
139 to 141	Clc1ccc(Nc2nnc(OCc3ccncc3)c3ccccc23)cc1
48 to 50	CCOC(=O)c1c(S(=O)(=O)c2ccccc2)cc(C(F)(F)F)nc1C(F)(F)F
210 to 211	CC1(C)Oc2cc3nc(SCc4ccccn4)[nH]c3cc2O1
236 to 238	COC(=O)C1=C(N(c2ccccc2)c2ccccc2)CC(C(=O)OC)=C(N(c2ccccc2)c2ccccc2)C1
97	CN(C)C(=O)[C@@H]1C[C@H](C(=O)OC(C)(C)C)N[C@@H]1c1ccccc1 (racemic)
176 to 178	CSc1c(CC(=O)O)ccc2c3ccccc3n(Cc3ccc(Cl)cc3)c12
161	CC1C(C)(C)c2ccc(C(=O)CCC(=O)O)cc2C1(C)C (centres undefined)

melting point [°C]	Structure (SMILES)
146 to 148	CC(C)(C)OC(=O)N1C[C@H](O)C[C@H]1C(N)=O
288 to 290	COc1ccc(-c2c3c(cc4ccc(OC)c(OC)c24)C(=O)NC3=O)cc1
259 to 261	O=C1Nc2ccccc2C12COc1ccc3c(c12)OCCO3 (centres undefined)
192 to 195	O=c1c(-c2ccccc2Cl)coc2cc(OCc3nnn[nH]3)cc(Cl)c12
274 to 280	O=C(NCc1c(F)cccc1F)c1[nH]c2ccc(Cl)cc2c1S(=O)(=O)c1ccccc1
151 to 152	CCCc1nc2cnc3cccnc3c2n1CC1(O)CCOC1 (centres undefined)
151 to 152	O=C(N[C@H](Cc1ccc(C(F)(F)F)cc1)[C@@H](O)c1cccc(F)c1)c1cccc2c1C=CCCC2 (racemic)
> 198	CCc1c(C(=O)O)[nH]c2c1C(=O)CC(C)(C)C2
164 to 165	CC1CCNC(=C2C(=O)CC(C)(C)CC2=O)N1 (centres undefined)
142 to 144	CON(C)C(=O)Nc1nnc(SCc2cccnc2)s1
159 to 160	Nc1cccnc1Nc1cccc(-c2cccnc2)c1
168 to 170	Cc1cc(COc2ccc(Oc3ccc(Cl)cc3)cc2)n(O)c(=O)c1
110 to 111	COc1cc(Nc2nccc(-c3ccc(NCCN(C)C)nc3)n2)cc(OC)c1OC
285 to 288	CS(=O)(=O)NCC1COCc2nc3c(N)nc4ccccc4c3n21 (centres undefined)
191 to 192	COc1cc(OCc2ccccn2)ccc1/C=C/C(=O)CC(=O)/C=C/c1ccc2ccn(C)c2c1
178 to 187	Cc1ccc(C(=O)c2ccc(C(=O)c3ccc(C)cc3)cc2)cc1
146 to 150	Oc1ccc2c(c1)OCC(c1cccc(F)c1)C2c1ccc(OCCN2CCCC2)cc1 (centres undefined)
175 to 176	N#Cc1cnc2cc(/C=C/CN3CCOCC3)ccc2c1Nc1ccc(Cl)cc1Cl
121 to 123	S=C=Nc1ccc(-c2nc(-c3cccnc3)no2)cc1
180 to 182	COc1ccc(S(=O)(=O)Nc2cccc(C)c2NC(=O)c2ccccn2)cc1
142 to 144	CCN(CC)CCOC(=O)C1=C(C)NC(C)=C(c2nnco2)C1c1cccc(Cl)c1Cl (centres undefined)
126 to 127	O=S1(=O)NC[C@@H](O)c2cc(Cl)sc21
143 to 144	CNCNc1cc(C(N)=O)ccc1C(C)(C)C
145 to 146	COc1ccc(COc2ccc(NC(C)=O)cc2C(=O)C=Cc2ccc(OCc3ccccc3)c(OCc3ccccc3)c2)cc1
95 to 96	CCOC(=O)NNC(=O)NCCCC(=O)OC

melting point [°C]	Structure (SMILES)
147 to 148	COC(=O)C=Cc1nn(-c2ccccc2)c2c1CCC2
90 to 92	CCOC(=O)C(=Cc1cccn2c(Br)cnc12)N=[N+]=[N-]
118 to 119	COc1cc(N)c(Cl)cc1C(=O)NN1CCN2CCCCC2C1 (centres undefined)
144 to 146	N#Cc1ccc2nc(CCl)[nH]c2c1
242 to 243	Cc1cc2c(cc1C)C(C(F)(F)F)(C(F)(F)F)c1cc3c(cc1O2)Oc1cc(C)c(C)cc1C3(C(F)(F)F)C(F)(F)F
159	COc1ccc2[nH]cc(CCCCN3CCN(c4ccc5oc(CO)cc5c4)CC3)c2c1
142	CCOC(=O)c1c(SCc2ccc(OC)cc2)[nH]c2cc(Cl)c(F)cc2c1=O
228	O=c1cc[nH]n1-c1c(Cl)cc(C(F)(F)F)cc1Cl
99 to 101	O=C1NC(=O)C(N(CC#Cc2ccc(F)cc2)c2ccc(CCNCC(O)COc3ccc(OCc4ccccc4)cc3)cc2)S1 (centres undefined)
241	COc1cc2c(cc1-c1cc(F)ccc1F)NC(=O)CC(c1cccc(-n3ccnn3)c1)=N2
137 to 139	N#CNC(=N)CCN1CCOC1=O
252 to 254	CCOC(=O)c1cnc(Nc2cc(C)ccc2C)[nH]c1=O
178	Nc1cc(Br)c([N+](=O)[O-])cc1Br
149 to 153	CC(C)N(CCN1C(=O)/C(=N/NC(N)=O)c2cc(Br)ccc21)C(C)C
222 to 225	CC1(c2ccccc2)C(=O)Nc2cc(Cl)cc(Cl)c2C1=O (centres undefined)
139 to 140	COc1ccnc(CSc2nc3cc4c(cc3[nH]2)OC(F)C(F)(F)O4)c1 (centres undefined)
197 to 198	COC(=O)C(Cc1c[nH]c2ccccc12)NC(=O)C(CCC(N)=O)NC(=O)OCc1ccccc1 (stereo not drawn) (Cbz-Gln-Trp-OMe; configuration not given here)
168 to 171	CC(C)(c1ccc(O)cc1)c1ccc(N2C(=O)C=CC2=O)cc1
108 to 111	O=[N+]([O-])c1cc(Cl)cc(O)c1O
186 to 188	COc1ccc2c(c1)CN(C(C)=O)N=C2Cc1c(Cl)cncc1Cl
88 to 90	O=C(O)Cn1cccc1
196 to 198	COc1ccc(NC(=O)Nc2ccccc2)cc1

Structure (SMILES)	melting point [°C]
COC(=O)c1nn(Cc2ccc(Cl)cc2Cl)c2ccccc12	168 to 170
CCCCCCCOC(N)=O	84
